Laboratory results as given in patent US12492181B2, “Gem-disubstituted piperidine melanocortin subtype-2 receptor (MC2R) antagonists and uses thereof” (Crinetics Pharmaceuticals, Inc., priority 2019, dated 2025).

biological target: T1, hMC2 receptor (crude hMC2R membranes from CRE-bla-CHO-K1 cells stably expressing hMC2 receptor and hMRAP accessory protein) (Homo sapiens, UniProt Q01718); test: hMC2 membrane binding assay ([125I]ACTH (1-39) Tyr23, SPA); conditions: displacement of 0.2 nM [125I]ACTH (1-39) Tyr23 from hMC2R membranes, 1.5 hours at room temperature; read-out: MC2R binding potency
T1 construct: crude membrane fractions
T1 sequence (Q01718 whole entry): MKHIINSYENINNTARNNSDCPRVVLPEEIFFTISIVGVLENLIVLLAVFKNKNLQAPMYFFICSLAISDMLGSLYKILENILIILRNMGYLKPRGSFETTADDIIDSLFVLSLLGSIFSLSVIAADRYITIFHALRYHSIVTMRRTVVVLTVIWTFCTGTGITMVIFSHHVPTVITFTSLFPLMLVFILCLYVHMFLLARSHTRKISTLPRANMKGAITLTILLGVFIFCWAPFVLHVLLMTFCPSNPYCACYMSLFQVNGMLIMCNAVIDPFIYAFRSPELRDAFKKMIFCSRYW
T1 sequence (Q8TCY5 whole entry partner): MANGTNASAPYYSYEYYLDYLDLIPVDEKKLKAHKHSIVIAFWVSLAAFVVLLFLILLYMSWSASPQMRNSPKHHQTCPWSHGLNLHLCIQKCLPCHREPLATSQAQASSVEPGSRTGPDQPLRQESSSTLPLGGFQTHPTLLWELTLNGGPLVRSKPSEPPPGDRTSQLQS
Summary of the method: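 Crude membranes from CRE-bla-CHO-K1 cells stably co-expressing hMC2R and hMRAP, premixed with WGA PVT SPA beads in pH 7.4 HEPES buffer (5 mM MgCl2, 1 mM CaCl2, 0.20% BSA, protease inhibitors). Compounds compete with [125I]ACTH(1-39) Tyr23, read by scintillation. Ki from non-linear regression.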

Ki [µM]	SMILES
0.01 to 0.1	CCOc1ncccc1-c1ccc(C2(OCCN(C)C)CCN(c3ccc(C(F)(F)F)cc3C#N)CC2)cc1 [Compound 2-1, 2-{4-[2-(dimethylamino)ethoxy]-4-[4-(2-ethoxypyridin-3-yl)phenyl]piperidin-1-yl}-5-(trifluoromethyl)benzonitrile]
< 0.01	CCOc1ncccc1-c1ccc(C2(NC(=O)CCN(C)C)CCN(c3ccc(C(F)(F)F)cc3C#N)CC2)cn1 [Compound 2-10, N-{1-[2-cyano-4-(trifluoromethyl)phenyl]-4-{2′-ethoxy-[2,3′-bipyridin]-5-yl}piperidin-4-yl}-3-(dimethylamino)propanamide]
< 0.01	CCOc1ncccc1-c1ccc(C2(NC(=O)[C@H]3CCN(C)C3)CCN(c3ccc(C(F)(F)F)cc3C#N)CC2)cn1 [Compound 2-9, (3S)—N-{1-[2-cyano-4-(trifluoromethyl)phenyl]-4-{2′-ethoxy-[2,3′-bipyridin]-5-yl}piperidin-4-yl}-1-methylpyrrolidine-3-carboxamide]
< 0.01	CCc1ncccc1-c1ccc(C2(C(=O)N[C@H]3CCN(C)C3)CCN(c3ccc(C(F)(F)F)cc3Cl)CC2)cn1 [Compound 1-172, 1-[2-chloro-4-(trifluoromethyl)phenyl]-4-{2′-ethyl-[2,3′-bipyridin]-5-yl}-N-[(3S)-1-methylpyrrolidin-3-yl]piperidine-4-carboxamide]
< 0.01	CCOc1ncccc1-c1ccc(C2(C(=O)N[C@@H]3CCN(C)C3)CCN(c3ccc(C(F)(F)F)nc3C#N)CC2)cn1 [Compound 1-24, 1-[2-cyano-6-(trifluoromethyl)pyridin-3-yl]-4-{2′-ethoxy-[2,3′-bipyridin]-5-yl}-N-[(3R)-1-methylpyrrolidin-3-yl]piperidine-4-carboxamide]
< 0.01	CN1CC[C@H](NC(=O)C2(c3ccc(-c4ccc[nH]4)nc3)CCN(c3ccc(C(F)(F)F)cc3C#N)CC2)C1 [Compound 1-143, 1-[2-cyano-4-(trifluoromethyl)phenyl]-N-[(3S)-1-methylpyrrolidin-3-yl]-4-[6-(1H-pyrrol-2-yl)pyridin-3-yl]piperidine-4-carboxamide]
0.01 to 0.1	Cn1cccc1-c1ccc(C2(C(=O)N[C@H]3C[C@@H](N)C3)CCN(c3ccc(C(F)(F)F)cc3C#N)CC2)cn1 [Compound 1-233, 1-[2-cyano-4-(trifluoromethyl)phenyl]-4-[6-(1-methyl-1H-pyrrol-2-yl)pyridin-3-yl]-N-[(1S,3S)-3-aminocyclobutyl]piperidine-4-carboxamide]
< 0.01	COc1ccccc1-c1ccc(C2(NC(=O)N[C@@H]3CCN(C)C3)CCN(c3ccc(C(F)(F)F)cc3C#N)CC2)cn1 [Compound 2-56, 1-{1-[2-cyano-4-(trifluoromethyl)phenyl]-4-[6-(2-methoxyphenyl)pyridin-3-yl]piperidin-4-yl}-3-[(3R)-1-methylpyrrolidin-3-yl]urea]
< 0.01	COc1ncc(F)cc1-c1ncc(C2(C(=O)N[C@H]3CCN(C)C3)CCN(c3ccc(C(F)(F)F)cc3C#N)CC2)cc1F [Compound 1-209, 1-[2-cyano-4-(trifluoromethyl)phenyl]-4-{3,5′-difluoro-2′-methoxy-[2,3′-bipyridin]-5-yl}-N-[(3S)-1-methylpyrrolidin-3-yl]piperidine-4-carboxamide]
< 0.01	Cc1occc1-c1ccc(C2(C(=O)N[C@H]3CCN(C)C3)CCN(c3ccc(C(F)(F)F)cc3C#N)CC2)cn1 [Compound 1-120, 1-[2-cyano-4-(trifluoromethyl)phenyl]-4-[6-(2-methylfuran-3-yl)pyridin-3-yl]-N-[(3S)-1-methylpyrrolidin-3-yl]piperidine-4-carboxamide]
0.01 to 0.1	CCOc1ncccc1-c1ccc(C2(C(=O)NCCCN)CCN(c3ccc(C(F)(F)F)cc3C#N)CC2)cc1 [Compound 1-5, N-(3-aminopropyl)-1-[2-cyano-4-(trifluoromethyl)phenyl]-4-[4-(2-ethoxypyridin-3-yl)phenyl]piperidine-4-carboxamide]
0.01 to 0.1	CCOc1ncccc1-c1ccc(C2(C(=O)N[C@H]3CCN(C)C3)CCN(c3ccc(C(F)(F)F)nc3C(N)=O)CC2)cn1 [Compound 1-27, 3-(4-{2′-ethoxy-[2,3′-bipyridin]-5-yl}-4-{[(3S)-1-methylpyrrolidin-3-yl]carbamoyl}piperidin-1-yl)-6-(trifluoromethyl)pyridine-2-carboxamide]
0.01 to 0.1	Cn1cccc1-c1ccc(C2(C(=O)N[C@H]3C[C@@H](N(C)C)C3)CCN(c3ccc(C(F)(F)F)cc3C#N)CC2)cn1 [Compound 1-239, 1-[2-cyano-4-(trifluoromethyl)phenyl]-4-[6-(1-methyl-1H-pyrrol-2-yl)pyridin-3-yl]-N-[(1S,3S)-3-(dimethylamino)cyclobutyl]piperidine-4-carboxamide]
< 0.01	CCOc1ccccc1-c1ccc(C2(NC(=O)[C@H]3CCN(C)C3)CCN(c3ccc(C(F)(F)F)cc3C#N)CC2)cn1 [Compound 2-27, (3S)—N-{1-[2-cyano-4-(trifluoromethyl)phenyl]-4-[6-(2-ethoxyphenyl)pyridin-3-yl]piperidin-4-yl}-1-methylpyrrolidine-3-carboxamide]
0.01 to 0.1	CN(C)[C@@H]1COC[C@H]1NC(=O)C1(c2ccc(-c3cccn3C)nc2)CCN(c2ccc(C(F)(F)F)cc2C#N)CC1 [Compound 1-264, 1-[2-cyano-4-(trifluoromethyl)phenyl]-N-[(3S,4S)-4-(dimethylamino)oxolan-3-yl]-4-[6-(1-methyl-1H-pyrrol-2-yl)pyridin-3-yl]piperidine-4-carboxamide]
< 0.01	CN1CC[C@@H](NC(=O)C2(c3ccc(-c4ccccc4C#N)nc3)CCN(c3ccc(C(F)(F)F)cc3C#N)CC2)C1 [Compound 1-78, 1-[2-cyano-4-(trifluoromethyl)phenyl]-4-[6-(2-cyanophenyl)pyridin-3-yl]-N-[(3R)-1-methylpyrrolidin-3-yl]piperidine-4-carboxamide]
< 0.01	C[C@@H](CN(C)C)NC(=O)C1(c2cnc(-c3cccn3C)c(F)c2)CCN(c2ccc(C(F)(F)F)cc2C#N)CC1 [Compound 1-324, 1-[2-cyano-4-(trifluoromethyl)phenyl]-N-[(2S)-1-(dimethylamino)propan-2-yl]-4-[5-fluoro-6-(1-methyl-1H-pyrrol-2-yl)pyridin-3-yl]piperidine-4-carboxamide]
0.01 to 0.1	Cn1cccc1-c1ccc(C2(C(=O)NC[C@@H]3CCN3)CCN(c3ccc(C(F)(F)F)cc3C#N)CC2)cn1 [Compound 1-235, N-{[(2S)-azetidin-2-yl]methyl}-1-[2-cyano-4-(trifluoromethyl)phenyl]-4-[6-(1-methyl-1H-pyrrol-2-yl)pyridin-3-yl]piperidine-4-carboxamide]
< 0.01	CN1CC[C@@H](NC(=O)C2(c3ccc(-c4ccccc4C4CC4)nc3)CCN(c3ccc(C(F)(F)F)cc3C#N)CC2)C1 [Compound 1-113, 1-[2-cyano-4-(trifluoromethyl)phenyl]-4-[6-(2-cyclopropylphenyl)pyridin-3-yl]-N-[(3R)-1-methylpyrrolidin-3-yl]piperidine-4-carboxamide]
< 0.01	CCOc1ccccc1-c1ccc(C2(C(=O)N[C@H]3CCN(C)C3)CCN(c3ccc(C(F)(F)F)cc3C#N)CC2)cn1 [Compound 1-30, 1-[2-cyano-4-(trifluoromethyl)phenyl]-4-[6-(2-ethoxyphenyl)pyridin-3-yl]-N-[(3S)-1-methylpyrrolidin-3-yl]piperidine-4-carboxamide]
< 0.01	CCOc1ncccc1-c1ccc(C2(NC(=O)C3CN(C)C3)CCN(c3ccc(Cl)cc3C#N)CC2)cn1 [Compound 2-37, N-[1-(4-chloro-2-cyanophenyl)-4-{2′-ethoxy-[2,3′-bipyridin]-5-yl}piperidin-4-yl]-1-methylazetidine-3-carboxamide]
< 0.01	CCOc1ncccc1-c1ccc(C2(C(=O)NCCN(C)C)CCN(c3ccc(C(F)(F)F)cc3F)CC2)cn1 [Compound 1-222, N-[2-(dimethylamino)ethyl]-4-{2′-ethoxy-[2,3′-bipyridin]-5-yl}-1-[2-fluoro-4-(trifluoromethyl)phenyl]piperidine-4-carboxamide]
< 0.01	CCOc1ccccc1-c1ccc(C2(C(=O)N[C@H]3CCN(C)C3)CCN(c3ccc(C(F)(F)F)cc3Cl)CC2)nn1 [Compound 1-175, 1-[2-chloro-4-(trifluoromethyl)phenyl]-4-[6-(2-ethoxyphenyl)pyridazin-3-yl]-N-[(3S)-1-methylpyrrolidin-3-yl]piperidine-4-carboxamide]
< 0.01	CCOc1ncccc1-c1ccc(C2(NC(=O)CN(C)C)CCN(c3ccc(Cl)cc3C#N)CC2)cn1 [Compound 2-38, N-[1-(4-chloro-2-cyanophenyl)-4-{2′-ethoxy-[2,3′-bipyridin]-5-yl}piperidin-4-yl]-2-(dimethylamino)acetamide]
< 0.01	COc1ccc(C)cc1-c1ccc(C2(C(=O)N[C@@H]3CCN(C)C3)CCN(c3ccc(C(F)(F)F)cc3C#N)CC2)cn1 [Compound 1-130, 1-[2-cyano-4-(trifluoromethyl)phenyl]-4-[6-(2-methoxy-5-methylphenyl)pyridin-3-yl]-N-[(3R)-1-methylpyrrolidin-3-yl]piperidine-4-carboxamide]
0.01 to 0.1	CCOc1ncccc1-c1ccc(C2(C(=O)N[C@@H]3CCN(C)C3)CCN(c3ccc(C(F)(F)F)nc3C(N)=O)CC2)cn1 [Compound 1-25, 3-(4-{2′-ethoxy-[2,3′-bipyridin]-5-yl}-4-{[(3R)-1-methylpyrrolidin-3-yl]carbamoyl}piperidin-1-yl)-6-(trifluoromethyl)pyridine-2-carboxamide]
< 0.01	CCOc1ncccc1-c1ccc(C2(C(=O)NCCN(C)C)CCN(c3ccc(C(F)(F)F)cc3C#N)CC2)nn1 [Compound 1-331, 1-[2-cyano-4-(trifluoromethyl)phenyl]-N-[2-(dimethylamino)ethyl]-4-[6-(2-ethoxypyridin-3-yl)pyridazin-3-yl]piperidine-4-carboxamide]
